Data set [1] concerns CCl4-induced hepatotoxicity in mice. The experiment in a line: Synergistic hepatoprotective activity of DBPs against CCl4-induced hepatotoxicity (Example IV). The conditions noted are these: CCl4 1 ml/kg, Ursocol 250 mg/kg b.w., mean ± SEM, n=4.
For data set [2], the system named is alcohol-induced hepatotoxicity in mice. The experiment in a line: Synergistic hepatoprotective activity of DBPs against alcohol-induced hepatotoxicity (Example IV). The conditions noted are these: for ACP / ALP / ALT / AST / Total Protein: alcohol 5 g/kg, Ursocol 250 mg/kg b.w., mean ± SEM, n=4.
Method: Hepatotoxicity was induced by oral administration of alcohol (ethanol: 5 g/kg) from stock 400 mg/ml twice daily for 15 days.
3-OH-DBP and 3,8-(OH)2-DBP were each separately suspended in 0.3% CMC and administered at a dose of 10 mg/kg body weight per orally for 15 days. During the 15 days treatment, body weight, food intake, and water intake were monitored at regular intervals. Following 15 days of treatment physical parameters (relative organ weight) and biochemical parameters (plasma total protein content, ALT, AST, ALP, and ACP) were studied.
3-OH-DBP (2 mg/kg body weight, 10 mg/kg body weight);
3,8-(OH)2-DBP (10 mg/kg body weight, 50 mg/kg body weight); and

Regarding `C[C@H](CCC(=O)O)[C@H]1CC[C@H]2[C@@H]3[C@@H](O)C[C@@H]4C[C@H](O)CC[C@]4(C)[C@H]3CC[C@]12C` [Ursocol, ursodeoxycholic acid, reference compound], in data set [1] (female mice), the ACP is reported as 29 ± 3.3 U/L, the ALP is 45 ± 6.9 IU/L, the ALT was found to be 50 ± 5.6 IU/L and the AST is reported as 49 ± 6.8 IU/L. Further, the “Total Protein” value in data set [1] (female mice) stood at 6 ± 0.22 g/dL. In addition, in data set [1] (male mice), the ACP is 22 ± 4.4 ^ U/L, the ALP was 60 ± 9.9 ^ IU/L, the ALT is listed as 21 ± 2.6 ^ IU/L and the AST is on record as 18 ± 3.4 ^ IU/L. Besides, the “Total Protein” value in data set [1] (male mice) is recorded as 6 ± 0.55 g/dL. Also, in data set [2] (female mice), the ACP was determined as 2.4 ± 0.47 U/L, the ALP stood at 49 ± 6.5 IU/L, the ALT was determined as 26.63 ± 2.85 IU/L and the AST was 25.39 ± 4.08 IU/L. Besides, in data set [2] (female mice), the “Total Protein” value is 5.97 ± 0.53 g/dL. Besides, in data set [2] (male mice), the ACP amounted to 3.19 ± 0.36 U/L, the ALP was found to be 86.1 ± 3.73 IU/L, the ALT is listed as 26.6 ± 1.94 ^ IU/L and the AST is 24.3 ± 3.84 IU/L. Also, the “Total Protein” value in data set [2] (male mice) is recorded as 8.83 ± 0.16 g/dL. For the same molecule, in data set [2] (male mice, alcohol study of Example IV), the Relative liver weight entry is “significantly increased”.
